# Patent publication US5098708A
# Like-named read-outs stand apart in the source and are kept apart here.
# Key:
# [1] = test system: herpes simplex virus type 1 (HSV-1); test: microbe, parasite or virus in culture; assay type: cell-based; settings: for ID50 HSV-Vero cell: Table 8, 72 hours incubation, 50% inhibition of cytopathic effect
# influenza virus A = test: microbe, parasite or virus in culture; assay type: cell-based; settings: 72 hours incubation, 50% inhibition of cytopathic effect; for ID50 Influenza virus-MDCK cell: Table 8; for IC50: unidentified influenza virus, MDCK, 72 h
# HIV antigen = test: Expression of HIV antigen in infected MT-4 cells by immunofluorescence; assay type: cell-based
# Experimental: Expression of HIV antigen was examined by immunofluorescence. When MT-4 cells were infected with HIV, viral antigen positive cells increased with incubation time and all the cells became positive on day 6 after infection.
# [2] = test system: reverse transcriptase (RTase) derived from avian myeloblastosis virus (AMV); assay type: biochemical
# [3] = Solubility in water and organic solvents; assay type: physicochemical
# Vero cell = settings: Table 8; 50% cytotoxicity against Vero cell without viral infection; 4320 min
# uninfected CEM cells = settings: human, 7200 min
# Experimental: The cells and the virus were grown in LAV/CEM medium. The medium consists of RPMI 1640, supplemented with 1% L-glutamine, 100 U/ml of Penicillin, 100 μg/ml Streptomycin, 2 μg/ml Polybrene and 10% heat-inactivated fetal bovine serum (HyClone Labs).
# The toxicities of the drugs were tested against uninfected CEM cells. The CEM cells were plated as described above, and culture for five days in the presence or absence of drugs. On day five 1 μCi/well of ^3 H-thymidine was added, and cells were harvested 3 hours later. The results are expressed as toxic dose 50 (TD50) and represent the amount of drug necessary to reduce the cell proliferation by 50% as measured through thymidine incorporation.
# [4] = test system: human immunodeficiency virus (HIV) LAV/BRU; settings: CEM-F cells; drug amount reducing viral replication by 50%
# Experimental: AZT was included as a reference compound. The methodology used in this assay is described below:
# The cells and the virus were grown in LAV/CEM medium. The medium consists of RPMI 1640, supplemented with 1% L-glutamine, 100 U/ml of Penicillin, 100 μg/ml Streptomycin, 2 μg/ml Polybrene and 10% heat-inactivated fetal bovine serum (HyClone Labs). […] The virus was adapted to CEM cells, and infectious virus stocks were stored as cell-free supernatant fluids in 1 ml aliquots in liquid nitrogen. The titer of the stock was determined by an end point titration method using CEM cells in 96-well microtiter plates. The titration was done with ten replicates for each point, and the 50% tissue culture infective dose (TCID50) was calculated using the method of Reed and Muench (Amer. J. Hygiene, 27/3 (1938) 493-497).
# The CEM cells (1.5×10^5 cells/ml) were placed in 96-well plates and incubated with virus for 45 minutes. After 45 minutes each compound was added in quadruplicate. At the end of the day, six supernatants were tested for presence of viral core protein p24gag in an antigen capture ELISA (Genetic Systems Company). The OD readings (absorbance at 450/630 nm) fall into three categories: Experimentals=values from wells containing cells, viral inoculum and drug; Controls=values from wells with cells and virus (100%); and Background=values from wells with viral inoculum alone. […]
# [5] = test system: Madin Darby canine kidney (MDCK) cell; test: Drug-induced cytotoxicity against MDCK cells without viral infection (dye-uptake assay); settings: Table 8; 50% cytotoxicity against MDCK cell without viral infection; 4320 min
# [6] = as above; settings: dog, mdck cells, TD50 Influenza virus-MDCK cell
# in vitro = settings: monkey, vero cells
# [7] = test system: human immunodeficiency virus (LAVBRU strain); test: Anti-HIV XTT assay in CEM-SS cells; assay type: cell-based; settings: Human immunodeficiency virus 1, 144 h, six days post infection, read-out: ED50 (XTT assay)
# Text: The antiviral effect is expressed as the concentration of compound which increases the number of viable cells in infected cultures to 50% that of the untreated, uninfected control cultures (ED50) The cellular toxicity is expressed as the concentration of compound which reduces the number of viable cells to 50% that of the untreated control (TD50).
# [8] = Cellular toxicity in CEM-SS cells (XTT assay); assay type: cell-based; settings: human
# Text: CEM-SS cells were obtained from Owen Weislow at the National Cancer Institute.
SMILES,ID50 HSV-Vero cell [1],ID50 Influenza virus-MDCK cell (influenza virus A),Solubility in acetone [3],Solubility in dimethylformamide and dimethyl sulfoxide [3],Solubility in methanol [3],Solubility in other organic solvents [3],Solubility in water [3],TD50 HSV-Vero cell (Vero cell),TD50 (thymidine incorporation) (uninfected CEM cells),ED50 (p24gag antigen capture assay) [4],TD50 Influenza virus-MDCK cell [5],further results
C/C1=C\C=C\C2(C)C=C(CO[C@H]3O[C@H](CO)[C@H](O)[C@H](O)[C@H]3O)C(C)CC23OC(O)C(C3=O)C(O)/C=C/C2(C)C=C(C=O)C(C)CC23OC(O)C(C3=O)C(O)/C(C)=C/C=C/C2C=C(CO[C@H]3O[C@H](CO)[C@H](O)[C@H](O)[C@H]3O)C(C)CC23OC(O)C(C3=O)C(O)/C=C/C2(C)C=C(C=O)C(C)CC23OC(O)C(C3=O)C1O (stereo partly shown),11 µg/mL,150 µg/mL,slightly soluble,soluble,slightly soluble,practically insoluble,soluble,> 400 µg/mL,> 100 µg,3.2 µg,250 µg/mL,"HIV antigen positive cells (suppression) (HIV antigen; HIV-infected MT-4 cells cultured in the presence of compound): significantly suppressed; HIV antigen positive cells (HIV antigen; HIV-infected MT-4 cells, concentration higher than 50 μg/ml, FIG. 10): less than 1%; AMV reverse transcriptase % inhibition ([2]; 3 μg/ml): 96.9%; AMV reverse transcriptase activity, count ([2]; 3 μg/ml): 1,584 ± 1,292 cpm; AMV reverse transcriptase % inhibition ([2]; 6 μg/ml): 98.1%; AMV reverse transcriptase activity, count ([2]; 6 μg/ml): 976 ± 145 cpm; AMV reverse transcriptase % inhibition ([2]; 12.5 μg/ml): 98.2%; AMV reverse transcriptase activity, count ([2]; 12.5 μg/ml): 920 ± 271 cpm; AMV reverse transcriptase % inhibition ([2]; 25 μg/ml): 98.8%; AMV reverse transcriptase activity, count ([2]; 25 μg/ml): 621 ± 402 cpm; AMV reverse transcriptase % inhibition ([2]; 50 μg/ml): 99.5%; AMV reverse transcriptase activity, count ([2]; 50 μg/ml): 235 ± 73 cpm; AMV reverse transcriptase % inhibition ([2]; 100 μg/ml): 99.7%; AMV reverse transcriptase activity, count ([2]; 100 μg/ml): 159 ± 14 cpm; Inhibition of 1 unit of AMV RTase activity ([2]; concentrations higher than 3 μg/ml): more than 95%"
C/C1=C\C=C\C2C=C(CO[C@H]3O[C@H](CO)[C@H](O)[C@H](O)[C@H]3O)C(C)CC23OC(O)C(C3=O)C(O)/C=C/C2(C)C=C(CO)C(C)CC23OC(O)C(C3=O)C(O)/C(C)=C/C=C/C2(C)C=C(CO[C@H]3O[C@H](CO)[C@H](O)[C@H](O)[C@H]3O)C(C)CC23OC(O)C(C3=O)C(O)/C=C/C2(C)C=C(C=O)C(C)CC23OC(O)C(C3=O)C1O (stereo partly shown),11 µg/mL,> 150 µg/mL,slightly soluble,soluble,slightly soluble,practically insoluble,soluble,> 200 µg/mL,> 100 µg,2.5 µg,150 µg/mL,
"NC(=O)c1ncn([C@@H]2O[C@H](CO)[C@@H](O)[C@H]2O)n1 [Ribavirin, reference compound]",,,,,,,,,,,,"IC50 (influenza virus A; read-out: ID50 Influenza virus-MDCK cell, Table 8): 15 µg/mL; IC50 (influenza virus A; read-out: ID50 Influenza virus-MDCK cell, Table 10): 9.5 µg/mL; CC50 at 72 h ([6]; Table 8, 50% cytotoxicity against MDCK cell without viral infection): > 200 µg/mL; CC50 at 72 h ([6]; Table 10, 50% cytotoxicity against MDCK cells without viral infection): > 100 µg/mL"
Nc1nc2c(ncn2COCCO)c(=O)[nH]1 [Acyclovir],,,,,,,,,,,,"IC50 ([1]; Human alphaherpesvirus 1, Vero, 72 h, read-out: ID50 HSV-Vero cell): 0.09 µg/mL; CC50 at 72 h (in vitro): > 100 µg/mL"
Cc1cn([C@H]2C[C@H](N=[N+]=[N-])[C@@H](CO)O2)c(=O)[nH]c1=O [AZT],,,,,,,,,4.2 µg,,,EC50 [7]: 0.005 µg/mL; CC50 at 144 h [8]: > 500 µg/mL
